From patent US7585861B2, “HIV inhibiting 1,2,4-triazines” (Janssen Pharmaceutica, N.V., priority 2003, dated 2009)

Legend:
HIV [1] = experiment: Test A: inhibition of the HIV-induced cytopathic effect in MT-4 cells (MTT); type: cell-based
Protocol: (§1) A rapid, sensitive and automated assay procedure was used for the in vitro evaluation of anti-HIV agents. An […] T4-cell line, MT-4, which was previously shown (Koyanagi et al., Int. J. Cancer, 36, 445-451, 1985) to be highly susceptible to and permissive for HIV infection, served as the target cell line. Inhibition of the HIV-induced cytopathic effect was used as the end point. The viability of both HIV- and mock-infected cells was assessed spectrophotometrically via the in situ reduction of 3-(4,5-dimethylthiazol-2-yl)-2,5-diphenyltetrazolium bromide (MTT). […] The percent protection achieved by the compound in HTV-infected cells was calculated by the following formula:
(§2) [formula] whereby (ODT)HIV is the optical density measured with a given concentration of the test compound in HIV-infected cells; (ODC)HIV is the optical density measured for the control unteated HIV-infected cells; (ODC)MOCK is the optical density measured for the control untreated mock-infected cells; all optical density values were determined at 540 nm. […] The ratio of CC50 to IC50 was defined as the selectivity index (SI).

[2] = Test A: cytotoxicity in mock-infected MT-4 cells (MTT); type: cell-based; details: human
Protocol: as §1, §2

[3] = Test B: cytotoxicity in mock-infected MT-4 cells engineered with GFP under a constitutional promoter; type: cell-based; details: human
Protocol: (§3) An […] T4-cell line, MT-4, which was previously shown (Koyanagi et al., Int. J. Cancer, 36, 445-451, 1985) to be highly susceptible to and permissive for HIV infection, served as the target cell line. In these cells, engineered with GFP (and an HIV-specific promotor), ongoing HIV-infection was measured fluorometrically. Cytotoxicity is measured in the same cells, but engineered with GFP under a constitutional promoter. The infection (or inhibition thereof) of HIV infected cells and the flourescence of mock-infected cells is assessed by the fluorescent GFP signal generated by the two above mentioned cell lines.

HIV [4] = experiment: Test B: HIV infection measured fluorometrically in MT-4 cells engineered with GFP (HIV-specific promotor); type: cell-based; details: Human immunodeficiency virus 1, MT4
Protocol: as §3

[5] = Human immunodeficiency virus 1, MT4, read-out: pIC50 (converted)

| SMILES | IC50 (HIV [1]; [5]) [M] | CC50 ([2]; mock-infected MT-4 cells) [µM] | CC50 [3] [µM] | IC50 (HIV [4]) [nM] | melting point [°C] | other results |
| --- | --- | --- | --- | --- | --- | --- |
| Cc1cc(C)c(Nc2nc(Nc3ccc(C#N)cc3)nnc2Cl)c(C)c1 [Compound 44] | – | – | – | – | – | IC50 (HIV [1]; Human immunodeficiency virus 1, MT4, read-out: pIC50 (M) (converted)): 2.51e-09 M; CC50 [2]: > 25.1 µM |
| N#CCCc1cc(Cl)c(Nc2nnc(Cl)c(Nc3ccc(C#N)cc3)n2)c(Cl)c1 [Compound 74] | – | – | > 25.1 | 5.01 | 256 to 257 | – |
| N#CCCc1cc(Cl)c(Nc2nnc(Cl)c(Nc3ccc(C#N)cc3)n2)c(Br)c1 [Compound 75] | – | – | > 25.1 | 3.16 | 252 to 254 | – |

Continued, in another order:

| IC50 (HIV [1]; [5]) [M] | SMILES | CC50 ([2]; mock-infected MT-4 cells) [µM] | CC50 [3] [µM] | IC50 (HIV [4]) [nM] | melting point [°C] | other results |
| --- | --- | --- | --- | --- | --- | --- |
| 2e-09 | Cc1cc(C#N)cc(C)c1Nc1cnnc(Nc2ccc(C#N)cc2)n1 [Compound 1] | > 100 | – | – | – | – |
| 5.01e-09 | Cc1cc(C#N)cc(C)c1Oc1nc(Nc2ccc(C#N)cc2)nnc1Cl [Compound 3] | > 100 | – | – | – | – |
| 5.01e-10 | COc1cc(OC)c(Nc2cnnc(Nc3ccc(C#N)cc3)n2)c(OC)c1 [Compound 36] | > 100 | – | – | – | – |
